According to ChEMBL document CHEMBL1201862, “PubChem BioAssay data set” (2004):
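Briefly, cells in 96-well plates were exposed to five compound concentrations for 48 h, and endpoints were estimated by linear interpolation. At the GI50, growth is halved.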 Active and inactive are the calls of the source. Rule as the data show it: active = GI50 up to about 1.1 µM and inactive = higher.

Key:
Assay in all cases: NCI tumour cell line growth inhibition, 48 h
MCF7 = tested on: MCF7
CCRF-CEM = tested on: CCRF-CEM
UACC-62 = tested on: UACC-62
Malme-3M = tested on: Malme-3M
HCT-116 = tested on: HCT-116
SF-268 = tested on: SF-268
HOP-62 = tested on: HOP-62
OVCAR-3 = tested on: OVCAR-3
HL-60 = tested on: HL-60
IGROV-1 = tested on: IGROV-1
A549 = tested on: A549
HCT-15 = tested on: HCT-15
SNB-19 = tested on: SNB-19
DMS-114 = tested on: DMS-114
SK-MEL-2 = tested on: SK-MEL-2
NCI-H226 = tested on: NCI-H226
OVCAR-4 = tested on: OVCAR-4
MDA-MB-231 = tested on: MDA-MB-231
MDA-MB-435 = tested on: MDA-MB-435
ACHN = tested on: ACHN

Compound | GI50 (MCF7) | GI50 (CCRF-CEM) | GI50 (UACC-62) | GI50 (Malme-3M) | GI50 (HCT-116) | GI50 (SF-268) | GI50 (HOP-62) | GI50 (OVCAR-3) | GI50 (HL-60) | GI50 (IGROV-1) | GI50 (A549) | GI50 (HCT-15) | GI50 (SNB-19) | GI50 (DMS-114) | GI50 (SK-MEL-2) | GI50 (NCI-H226) | GI50 (OVCAR-4) | GI50 (MDA-MB-231) | GI50 (MDA-MB-435) | GI50 (ACHN)
COc1cc(/C=C/C(=O)Oc2ccc(NC(C)=O)cc2)ccc1C(=O)O/C=C/c1ccccc1 | > 100 µM (inactive) | > 100 µM (inactive) | > 100 µM (inactive) | > 100 µM (inactive) | > 100 µM (inactive) | > 100 µM (inactive) | > 100 µM (inactive) | > 100 µM (inactive) | > 100 µM (inactive) | > 100 µM (inactive) | > 100 µM (inactive) | > 100 µM | > 100 µM (inactive) | > 100 µM (inactive) | > 100 µM (inactive) | > 100 µM (inactive) | > 100 µM (inactive) | – | – | –
Cc1cc(N(CCC#N)S(=O)(=O)c2ccccc2)ccc1/C=N/c1ccc(C(=O)O)cc1 | > 100 µM (inactive) | 6.4 µM (inactive) | 17.4 µM (inactive) | 4.61 µM (inactive) | 7.87 µM (inactive) | > 41 µM (inactive) | 31 µM (inactive) | 10.1 µM (inactive) | 5.21 µM (inactive) | 30 µM (inactive) | 31.6 µM (inactive) | 7.53 µM | 29.6 µM (inactive) | 3.41 µM (inactive) | 6.7 µM (inactive) | 21.8 µM (inactive) | 5.62 µM (inactive) | > 100 µM (inactive) | > 100 µM (inactive) | –
Cc1nc([N+](=O)[O-])cn1CC(=N)N | – | > 100 µM (inactive) | > 100 µM (inactive) | > 100 µM (inactive) | > 100 µM (inactive) | > 100 µM (inactive) | > 100 µM (inactive) | > 100 µM (inactive) | > 100 µM (inactive) | > 100 µM (inactive) | > 100 µM (inactive) | > 100 µM | > 100 µM (inactive) | > 100 µM (inactive) | > 100 µM (inactive) | > 100 µM (inactive) | > 100 µM (inactive) | – | – | > 100 µM (inactive)
Cc1cc(N(CCC#N)CCC#N)ccc1/N=N/c1ccc(S(N)(=O)=O)cc1 | – | > 100 µM (inactive) | > 100 µM (inactive) | > 100 µM (inactive) | – | > 100 µM (inactive) | > 100 µM (inactive) | > 100 µM (inactive) | > 100 µM (inactive) | > 100 µM (inactive) | > 100 µM (inactive) | > 100 µM | > 100 µM (inactive) | > 100 µM (inactive) | > 100 µM (inactive) | > 100 µM (inactive) | > 100 µM (inactive) | – | – | > 100 µM (inactive)
CCCCCC(C[N+]1(C)CCOCC1)C(=O)/C=C/c1ccccc1 (stereo not given) | – | 2.71 µM (inactive) | 9.59 µM (inactive) | 16.9 µM (inactive) | 3.41 µM (inactive) | 9.64 µM (inactive) | 30 µM (inactive) | 14.4 µM (inactive) | 6.89 µM (inactive) | 19.4 µM (inactive) | 22.9 µM (inactive) | 8.34 µM | 12 µM (inactive) | 9.62 µM (inactive) | 15.2 µM (inactive) | 10.8 µM (inactive) | 11.2 µM (inactive) | – | – | 23.6 µM (inactive)
CCOC(=O)C1=C(NC)OC/C1=N\NC(=O)c1ccccc1O | – | 14.9 µM (inactive) | 7.03 µM (inactive) | 26.9 µM (inactive) | 9.29 µM (inactive) | 6.53 µM (inactive) | 28 µM (inactive) | 19.9 µM (inactive) | 19.3 µM (inactive) | 7.21 µM (inactive) | 32.1 µM (inactive) | – | 12.7 µM (inactive) | 20.7 µM (inactive) | 12.8 µM (inactive) | 13.3 µM (inactive) | 16.3 µM (inactive) | – | – | –
COc1ccc(OC(=O)CC2Cc3cc(OC)c(OC)c(OC)c3-c3ccc(SC)c(=O)cc32)cc1 (stereo not given) | – | 0.184 µM (active) | 0.232 µM (active) | 0.383 µM (active) | 0.156 µM (active) | 2.74 µM (inactive) | 0.183 µM (active) | 0.185 µM (active) | 0.0893 µM (active) | 1.85 µM (inactive) | 0.762 µM (active) | 0.467 µM | 0.12 µM (active) | 0.348 µM (active) | 2.14 µM (inactive) | 0.216 µM (active) | 11.7 µM (inactive) | – | – | 0.792 µM (active)
O=C1Sc2sc(=S)sc2SC1c1ccccc1 (stereo not given) | 67.9 µM (inactive) | 33 µM (inactive) | 26.8 µM (inactive) | > 49.3 µM (inactive) | > 59 µM (inactive) | 46.6 µM (inactive) | > 100 µM (inactive) | 29.8 µM (inactive) | 20 µM (inactive) | > 100 µM (inactive) | > 100 µM (inactive) | 19.4 µM | > 73.1 µM (inactive) | 34.3 µM (inactive) | > 65 µM (inactive) | > 81.8 µM (inactive) | 18.3 µM (inactive) | – | – | –
CCOC(=O)N1CCc2cc(OC)c(OC)cc2/C1=C/c1ccc(OC)c(OC)c1 | – | 29 µM (inactive) | 55.8 µM (inactive) | 20 µM (inactive) | 38.4 µM (inactive) | 79.6 µM (inactive) | 84.5 µM (inactive) | 61.4 µM (inactive) | 23.6 µM (inactive) | > 100 µM (inactive) | 43.1 µM (inactive) | 36.1 µM | 58.3 µM (inactive) | 40 µM (inactive) | 51.6 µM (inactive) | 69.5 µM (inactive) | – | – | – | 52.2 µM (inactive)
CSC(SC)=C1Sc2cccc(Cl)c2S1 | – | 28.8 µM (inactive) | 95.1 µM (inactive) | > 100 µM (inactive) | 41.5 µM (inactive) | > 100 µM (inactive) | > 100 µM (inactive) | – | 18.3 µM (inactive) | > 100 µM (inactive) | > 100 µM (inactive) | 48.3 µM | 85.1 µM (inactive) | 26.4 µM (inactive) | 17.9 µM (inactive) | > 100 µM (inactive) | 68.4 µM (inactive) | – | – | 74 µM (inactive)
NC(=O)/C(=N\NC(=O)c1cc2ccccc2cc1O)C1C(=O)N(c2ccccc2)N=C1N (stereo not given) | – | 11.7 µM (inactive) | 15.2 µM (inactive) | 58.7 µM (inactive) | 27.2 µM (inactive) | 17.2 µM (inactive) | 34 µM (inactive) | 28 µM (inactive) | 6 µM (inactive) | 21.1 µM (inactive) | 30.6 µM (inactive) | – | 65.3 µM (inactive) | 20.4 µM (inactive) | 21.7 µM (inactive) | 24.2 µM (inactive) | 22.6 µM (inactive) | – | – | 29.9 µM (inactive)
S=P1(c2ccccc2)Nc2ccc(Cl)cc2N1 (stereo not given) | – | 4.45 µM (inactive) | 8.09 µM (inactive) | > 100 µM (inactive) | – | > 100 µM (inactive) | > 100 µM (inactive) | > 100 µM (inactive) | 7.48 µM (inactive) | 35.5 µM (inactive) | > 100 µM (inactive) | 58.5 µM | > 100 µM (inactive) | 26.6 µM (inactive) | > 100 µM (inactive) | > 100 µM (inactive) | 6.49 µM (inactive) | – | – | 89.1 µM (inactive)
O=C(Cl)c1cc([N+](=O)[O-])cc([N+](=O)[O-])c1 | – | > 100 µM (inactive) | > 100 µM (inactive) | > 100 µM (inactive) | > 100 µM (inactive) | > 100 µM (inactive) | > 100 µM (inactive) | – | > 100 µM (inactive) | > 100 µM (inactive) | > 100 µM (inactive) | > 100 µM | > 100 µM (inactive) | > 100 µM (inactive) | > 100 µM (inactive) | > 100 µM (inactive) | > 100 µM (inactive) | – | – | > 100 µM (inactive)
O=C1/C(=C/c2ccc(Cl)cc2)CCC1CN1CCOCC1 (stereo not given) | 3.77 µM (inactive) | 1.13 µM (inactive) | 5.51 µM (inactive) | 6.52 µM (inactive) | 4.2 µM (inactive) | 14.3 µM (inactive) | 16.1 µM (inactive) | 6.37 µM (inactive) | 0.836 µM (active) | 6.32 µM (inactive) | 27.4 µM (inactive) | 3.83 µM | 14.8 µM (inactive) | 22.8 µM (inactive) | 16.5 µM (inactive) | 20.6 µM (inactive) | 17.5 µM (inactive) | 3.83 µM (inactive) | 4.6 µM (inactive) | 11.2 µM (inactive)
CC(=O)[O-].[O-]c1c(Cl)cc(Cl)cc1/C=N/Nc1ccccn1.[Zn+2] | – | 0.244 µM (active) | 0.435 µM (active) | 0.76 µM (active) | 0.338 µM (active) | 0.94 µM (active) | 1.81 µM (inactive) | 0.268 µM (active) | 0.234 µM (active) | 1.96 µM (inactive) | 3.65 µM (inactive) | 0.403 µM | 3.86 µM (inactive) | 0.239 µM (active) | 0.0601 µM (active) | > 100 µM (inactive) | – | – | – | 0.535 µM (active)
CCNC(=O)C(O)C1(O)CCC2[C@@H]3CCC4=CC(=O)C=C[C@]4(C)C3[C@@H](O)C[C@@]21C (stereo not given in full) | – | 32.8 µM (inactive) | > 100 µM (inactive) | > 100 µM (inactive) | > 100 µM (inactive) | > 49.4 µM (inactive) | > 100 µM (inactive) | > 100 µM (inactive) | 29.8 µM (inactive) | > 100 µM (inactive) | 86.9 µM (inactive) | > 100 µM | > 100 µM (inactive) | 60.7 µM (inactive) | > 100 µM (inactive) | > 87.5 µM (inactive) | > 100 µM (inactive) | – | – | > 100 µM (inactive)
O=C1C=CC(=C(c2ccc(O)cc2)c2ccc(O)cc2)C=C1 [AURIN] | – | 2.39 µM (inactive) | 3.91 µM (inactive) | 12 µM (inactive) | 10.8 µM (inactive) | 13.2 µM (inactive) | 20.2 µM (inactive) | 7 µM (inactive) | 2.86 µM (inactive) | 13.6 µM (inactive) | 22 µM (inactive) | 14.4 µM | 15.6 µM (inactive) | 2.4 µM (inactive) | 3.88 µM (inactive) | 17.4 µM (inactive) | 14.4 µM (inactive) | – | – | 15.2 µM (inactive)
